Results taken from patent US20250214964A1, “COMPOUNDS DERIVED FROM 4-AMINO-N-(4-AMINOPHENYL) BENZAMIDE AND ANALOGUES AND USE THEREOF” (priority 2022, published 2025).
One block for each compound: values may come before it.

How the values were obtained:
[1] = system: intracellular amastigotes of L. donovani (strain MHOM/ET/67/HU3); assay: L. donovani intracellular amastigotes in THP-1-derived macrophages, resazurin method; type: cell-based; conditions: for SI selectivity index (EC50 THP-1/EC50 parasite (amastigote form)): THP-1 vs L. donovani amastigotes
Experimental: (§1) Furthermore, their cytotoxicity on human THP-1 cells was evaluated and the selectivity index (SI) of each compound was calculated (Table 1).

[2] = system: T. b. brucei wild strain s427; assay: T. b. brucei s427 bloodstream trypomastigotes, Alamar blue; type: cell-based
HEK cells = assay: Cytotoxicity on HEK cells; conditions: read-out: CC50 HEK; concentration that causes 50% cell death
[3] = system: T. b. brucei drug-resistant strain B48; type: cell-based; conditions: for RF resistance factor (EC50 T. b. B48/EC50 T. b. s427): value in parentheses
[4] = Cytotoxicity on L929 cells; type: cell-based; conditions: mouse
[5] = Cytotoxicity on THP-1 cells; conditions: human
Experimental: as §1

[6] = system: epimastigotes of T. cruzi (CL strain lacZ); assay: microbe, parasite or virus in culture; type: cell-based; conditions: Trypanosoma cruzi
[7] = Microsomal stability, mouse liver microsomes; conditions: reaction time up to 120 min
[8] = Microsomal stability, human liver microsomes, phase I; conditions: reaction time up to 120 min

Structure (SMILES): C[C@@H]1[C@H](O)[C@@H](C)/C=C/C=C/C=C/C=C/C=C/C=C/C=C/[C@H](O[C@@H]2O[C@H](C)[C@@H](O)[C@H](N)[C@@H]2O)C[C@@H]2O[C@](O)(C[C@@H](O)C[C@@H](O)[C@H](O)CC[C@@H](O)C[C@@H](O)CC(=O)O[C@H]1C)C[C@H](O)[C@H]2C(=O)O [AmB, Amphotericin B]
SI selectivity index (EC50 THP-1/EC50 parasite (amastigote form)) [1]: 116.0

Structure (SMILES): O=C(Nc1ccc(N=c2[nH]c3ccccc3[nH]2)c(Cl)c1)c1ccc(N=c2[nH]c3ccccc3[nH]2)cc1Cl [Compound 1f, 4-((1H-benzo[d]imidazol-2(3H)-ylidene)amino)-N-(4-((1H-benzo[d]imidazol-2(3H)-ylidene)amino)-3-chlorophenyl)-2-clorobenzamide]
SI ([2]; HEK vs T. brucei): 3.9
EC50 ([2]; strain s427 of T. b. brucei): 2.64 ± 0.09 µM
CC50 (HEK cells): 10.2 ± 0.3 µM
EC50 ([3]; strain B48 resistant to pentamidine and diminazene): 2.93 ± 0.17 µM
RF resistance factor (EC50 T. b. B48/EC50 T. b. s427) [3]: (1.11)

EC50 ([1]; Leishmania donovani, Macrophage, read-out: EC50 L. donovani intracellular amastigotes): > 10 µM
Structure (SMILES): c1ccc2[nH]c(=Nc3ccc(CCc4ccc(N=c5[nH]c6ccccc6[nH]5)cc4)cc3)[nH]c2c1 [Compound 13, 4,4′-(ethane-1,2-diyl)bis(N-(1H-benzo[d]imidazol-2(3H)-ylidene)aniline)]

Structure (SMILES): N=C(Nc1ccc(CCc2ccc(NC(=N)c3ccccn3)cc2)cc1)c1ccccn1 [Compound 17, N,N″-(ethane-1,2-diylbis(4,1-phenylene))dipicolinimidamide]
EC50 at 72 h [4]: > 200 µM
EC50 [5]: > 50 µM

Structure (SMILES): CCCCCCCCCCCCCCCCOP(=O)([O-])OCC[N+](C)(C)C [MIL, Miltefosine]
SI selectivity index (EC50 THP-1/EC50 parasite (amastigote form)) [1]: 28.8

Structure (SMILES): O=C(Cn1ccnc1[N+](=O)[O-])NCc1ccccc1 [benzn, benznidazole]
EC50 at 72 h [4]: > 200 µM
EC50 [6]: 25.3 ± 2.1 µM

metabolism by mouse liver microsomes (CD-1), in words [7]: slowly metabolised
Structure (SMILES): O=C(O)Cc1ccccc1Nc1c(Cl)cccc1Cl [diclofenac]
metabolism by human liver microsomes, in words [8]: rapidly metabolised (high intrinsic clearance)

Structure (SMILES): N=C(N)c1ccc(/N=N/Nc2ccc(C(=N)N)cc2)cc1 [dimin., Diminazene]
RF resistance factor (EC50 T. b. B48/EC50 T. b. s427) [3]: (13.1)

Structure (SMILES): N=C(N)c1ccc(OCCCCCOc2ccc(C(=N)N)cc2)cc1 [pent., Pentamidine]
RF resistance factor (EC50 T. b. B48/EC50 T. b. s427) [3]: (168)
